Data as given in article PMC8593678, “Berberine Improves Irinotecan-Induced Intestinal Mucositis Without Impairing the Anti-colorectal Cancer Efficacy of Irinotecan by Inhibiting Bacterial β-glucuronidase” (Frontiers in Pharmacology, 2021).

Molecular target: T1, β-glucuronidase (GUS) (Escherichia coli, UniProt P05804)
T1 construct: gene uidA
Assay: fluorescent 4-MUG hydrolysis assay with purchased E. coli GUS; Lineweaver-Burk plots
Assay type: biochemical

T1 sequence (P05804 whole entry): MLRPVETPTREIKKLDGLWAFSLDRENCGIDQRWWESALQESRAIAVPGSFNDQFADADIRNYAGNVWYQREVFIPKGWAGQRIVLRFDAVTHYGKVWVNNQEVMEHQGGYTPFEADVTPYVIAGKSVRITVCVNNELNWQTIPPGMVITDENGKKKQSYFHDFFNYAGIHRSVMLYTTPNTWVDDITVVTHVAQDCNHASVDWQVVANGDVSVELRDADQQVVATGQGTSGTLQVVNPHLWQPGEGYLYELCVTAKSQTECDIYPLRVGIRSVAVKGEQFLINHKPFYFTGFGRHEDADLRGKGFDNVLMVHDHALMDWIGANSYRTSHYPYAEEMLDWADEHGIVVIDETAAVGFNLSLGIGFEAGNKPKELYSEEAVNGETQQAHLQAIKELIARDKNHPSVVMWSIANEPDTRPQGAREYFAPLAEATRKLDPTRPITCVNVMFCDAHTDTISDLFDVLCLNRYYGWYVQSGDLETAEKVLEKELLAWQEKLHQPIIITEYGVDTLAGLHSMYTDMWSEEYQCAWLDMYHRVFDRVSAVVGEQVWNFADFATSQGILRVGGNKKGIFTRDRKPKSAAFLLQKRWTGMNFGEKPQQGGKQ

COc1ccc2cc3[n+](cc2c1OC)CCc1cc2c(cc1-3)OCO2 [Berberine, 9,10-dimethoxy-5,6-dihydro-(1,3)dioxolo (4,5-g)isoquinolino (3,2-a)isoquinolin-7-ium]
IC50: 54 ± 5.1 µM
